Laboratory results: article PMC7914897, “Cytotoxic Potential of a-Azepano- and 3-Amino-3,4-SeCo-Triterpenoids” (International Journal of Molecular Sciences, 2021)
Like-named read-outs stand apart in the source and are kept apart here.

Experiments:
UACC-62 (Melanoma) = assay: NCI-60 screen (SRB, 48 h); settings: Homo sapiens
ACHN (Renal cancer) = assay: NCI-60 screen (SRB, 48 h)
OVCAR-4 (Ovarian cancer) = assay: NCI-60 screen (SRB, 48 h); assay type: cell-based; settings: Homo sapiens
OVCAR-8 (Ovarian cancer) = assay: NCI-60 screen (SRB, 48 h); settings: Homo sapiens
HOP-62 (NSC lung cancer) = assay: NCI-60 screen (SRB, 48 h); settings: Homo sapiens
HCT-116 (Colon cancer) = assay: NCI-60 screen (SRB, 48 h); settings: Homo sapiens
PC-3 (Prostate cancer) = assay: NCI-60 screen (SRB, 48 h); settings: Homo sapiens
[1] = tested on: NCI/ADR-RES (Ovarian cancer); assay: NCI-60 screen (SRB, 48 h); settings: Homo sapiens
[2] = tested on: MDA-MB-31/ATCC (Breast cancer); assay: NCI-60 screen (SRB, 48 h); settings: Homo sapiens
SK-OV-3 (Ovarian cancer) = assay: NCI-60 screen (SRB, 48 h); settings: Homo sapiens
EKVX (NSC lung cancer) = assay: NCI-60 screen (SRB, 48 h); settings: Homo sapiens
A498 (Renal cancer) = assay: NCI-60 screen (SRB, 48 h); settings: Homo sapiens
SNB-75 (CNS cancer) = assay: NCI-60 screen (SRB, 48 h); settings: Homo sapiens
786-0 (Renal cancer) = assay: NCI-60 screen (SRB, 48 h)
[3] = tested on: panel of approximately 60 cancer cell lines; assay: NCI-60 screen (SRB, 48 h), full panel
Renal Cancer subpanel = assay: NCI-60 screen, subpanel; settings: Homo sapiens
SN12C (Renal cancer) = assay: NCI-60 screen (SRB, 48 h); settings: Homo sapiens
Colon Cancer subpanel = assay: NCI-60 screen, subpanel; settings: Homo sapiens
[4] = tested on: NIH 3T3 (non-malignant mouse fibroblasts); assay: SRB cytotoxicity assay, 72 h; assay type: cell-based; settings: Mus musculus, NIH3T3; NIH 3T3, 72 h, cut-off 30 µM; read-out: EC50
Method in brief: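 Absorbance at 570 nm of SRB-stained cells gives % survival vs untreated controls, from which EC50 is determined. Treatment: 0–30 µM serial dilutions, 72 h, beginning 24 h post-seeding; DMSO ≤0.5%. TCA (10%) fixation, acetic acid wash.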

[5] = tested on: NCI-H322M (NSC lung cancer); assay: NCI-60 screen (SRB, 48 h); settings: Homo sapiens
[6] = tested on: MDA-MB-468 (Breast cancer); assay: cells; settings: Homo sapiens
BT-549 (Breast cancer) = assay: NCI-60 screen (SRB, 48 h); assay type: cell-based; settings: Homo sapiens

## C=C(C)[C@@H]1CC[C@]2(C)[C@H](C=CC3=C4C[C@@](C)(CO)CC[C@]4(C)CC[C@]32C)[C@@]1(C)CCCN [Compound 20]
UACC-62 (Melanoma); UACC-62
  GI50: 1.78 µM
UACC-62 (Melanoma); UACC-62, 48 h, read-out: TGI
  IC (TGI): 3.17 µM
UACC-62 (Melanoma); UACC-62, read-out: LC50
  CC50: 5.66 µM
ACHN (Renal cancer); 1 dose 10 µM
  Growth % of the Most Sensitive Cell Lines: −94.94%
ACHN (Renal cancer); Homo sapiens
  GI50: 1.76 µM
ACHN (Renal cancer); Homo sapiens, 48 h, read-out: TGI
  IC (TGI): 3.14 µM
ACHN (Renal cancer); Homo sapiens, read-out: LC50
  CC50: 5.6 µM
OVCAR-4 (Ovarian cancer); OVCAR-4, 48 h
  IC (TGI): 3.09 µM
OVCAR-4 (Ovarian cancer); OVCAR-4, read-out: GI50
  GI50: 1.53 µM
OVCAR-4 (Ovarian cancer); OVCAR-4, read-out: LC50 (the source's name)
  CC50: 6.23 µM
OVCAR-8 (Ovarian cancer); OVCAR-8
  GI50: 2.13 µM
OVCAR-8 (Ovarian cancer); OVCAR-8, 48 h, read-out: TGI
  IC (TGI): 4.61 µM
OVCAR-8 (Ovarian cancer); OVCAR-8, read-out: LC50
  CC50: 10 µM
HOP-62 (NSC lung cancer); HOP-62
  GI50: 1.98 µM
HOP-62 (NSC lung cancer); HOP-62, 48 h, read-out: TGI
  IC (TGI): 4.04 µM
HCT-116 (Colon cancer); HCT-116
  GI50: 1.69 µM
HCT-116 (Colon cancer); HCT-116, 48 h, read-out: TGI
  IC (TGI): 3.21 µM
HCT-116 (Colon cancer); HCT-116, read-out: LC50
  CC50: 6.08 µM
PC-3 (Prostate cancer); PC-3
  GI50: 1.7 µM
PC-3 (Prostate cancer); PC-3, 48 h, read-out: TGI
  IC (TGI): 3.28 µM
PC-3 (Prostate cancer); PC-3, read-out: LC50
  CC50: 6.33 µM
[1]
  GI50: 1.74 µM
[1]; 48 h, read-out: TGI
  IC (TGI): 3.37 µM
[1]; read-out: LC50
  CC50: 6.54 µM
[2]
  GI50: 1.77 µM
[2]; 48 h, read-out: TGI
  IC (TGI): 3.27 µM
[2]; read-out: LC50
  CC50: 6.02 µM
SK-OV-3 (Ovarian cancer); SK-OV-3
  GI50: 1.72 µM
SK-OV-3 (Ovarian cancer); SK-OV-3, 48 h, read-out: TGI
  IC (TGI): 3.17 µM
SK-OV-3 (Ovarian cancer); SK-OV-3, read-out: LC50
  CC50: 5.85 µM
EKVX (NSC lung cancer)
  GI50: 1.6 µM
EKVX (NSC lung cancer); 48 h, read-out: TGI
  IC (TGI): 3.1 µM
EKVX (NSC lung cancer); read-out: LC50
  CC50: 6.01 µM
A498 (Renal cancer); A498
  GI50: 1.54 µM
A498 (Renal cancer); A498, 48 h, read-out: TGI
  IC (TGI): 2.9 µM
A498 (Renal cancer); A498, read-out: LC50
  CC50: 5.44 µM
SNB-75 (CNS cancer); SNB-75
  GI50: 1.53 µM
SNB-75 (CNS cancer); SNB-75, 48 h, read-out: TGI
  IC (TGI): 2.97 µM
SNB-75 (CNS cancer); SNB-75, read-out: LC50
  CC50: 5.77 µM
786-0 (Renal cancer); 786-0, 1 dose 10 µM
  Growth % of the Most Sensitive Cell Lines: −97.28%
786-0 (Renal cancer); Homo sapiens, 786-0
  GI50: 1.68 µM
786-0 (Renal cancer); Homo sapiens, 786-0, 48 h, read-out: TGI
  IC (TGI): 3.44 µM
786-0 (Renal cancer); Homo sapiens, 786-0, read-out: LC50
  CC50: 7.04 µM
[3]; 1 dose 10 µM
  Positive Cytostatic Effect (cell lines with percent growth 0 to 50 / total): 8/60
  Positive Cytotoxic Effect (cell lines with percent growth < 0 / total): 46/60
  number of cancer cell lines the compound was active against: 52 cell lines
[3]; Homo sapiens, 48 h, read-out: Mean Growth, %
  activity at 10 µM: -36.5%
[3]; Homo sapiens, 48 h, read-out: Range of Growth, %
  activity at 10 µM: -100 to 90.8%
[3]; Homo sapiens, 48 h, read-out: TGI MG_MID60, average over all cell lines
  IC (TGI): 3.36 µM
[3]; Homo sapiens, read-out: GI50 MG_MID60
  GI50: 1.66 µM
[3]; Homo sapiens, read-out: GI50 against all human tumor cell lines
  GI50: < 3 µM
[3]; Homo sapiens, read-out: GI50 against the most sensitive cell lines
  GI50: 0.2 to 0.94 µM
[3]; Homo sapiens, read-out: LC50 MG_MID60, average over all cell lines
  CC50: 17.3 µM
Renal Cancer subpanel; 48 h, read-out: TGI MG_MID
  IC (TGI): 3.07 µM
Renal Cancer subpanel; read-out: GI50 MG_MID
  GI50: 1.61 µM
Renal Cancer subpanel; read-out: LC50 MG_MID
  CC50: 5.86 µM
SN12C (Renal cancer)
  GI50: 1.64 µM
SN12C (Renal cancer); 48 h, read-out: TGI
  IC (TGI): 3.15 µM
SN12C (Renal cancer); read-out: LC50
  CC50: 6.03 µM
Colon Cancer subpanel; 48 h, read-out: TGI MG_MID
  IC (TGI): 2.98 µM
Colon Cancer subpanel; read-out: GI50 MG_MID
  GI50: 1.47 µM
Colon Cancer subpanel; read-out: LC50 MG_MID
  CC50: 5.96 µM
[4]
  EC50: 3.46 ± 0.3 µM
[5]
  GI50: 1.57 µM
[5]; 48 h, read-out: TGI
  IC (TGI): 2.91 µM
[5]; read-out: LC50
  CC50: 5.43 µM
[6]; MDA-MB-468
  GI50: 1.58 µM
[6]; MDA-MB-468, 48 h, read-out: TGI
  IC (TGI): 3.2 µM
[6]; MDA-MB-468, read-out: LC50
  CC50: 6.47 µM
BT-549 (Breast cancer); BT-549
  GI50: 1.64 µM
BT-549 (Breast cancer); BT-549, 48 h
  IC (TGI): 3.07 µM
BT-549 (Breast cancer); BT-549, read-out: LC50 (the source's name)
  CC50: 5.78 µM
